Results published in patent publication US20230390315A1, “COMPOSITIONS AND METHODS FOR TREATING ISCHEMIC CONDITIONS” (The Regents of the University of California, priority 2020, published 2023).

Assays:
retinal vasculature = assay: Retinal neovascularization after intravitreal injection; assay type: in vivo, mouse; details: intravitreal 500 ng ManN or Kif, 200 ng bFGF; seven days
Method: Assessment of retinal angiogenesis following intravitreal administration was done. Briefly, 6-8 weeks old C57BL/6 male mice were randomly allocated to different groups and anesthetized with ketamine/Xylazine cocktail. The indicated amounts of ManN, Kif or bFGF (R&D systems, AF-233-NA) in 1 μl of PBS and PBS vehicle control were injected intravitreally with a 33-gauge Hamilton syringe. Seven days after injection, animals were euthanized. Eyes were then enucleated and fixed in 4% paraformaldehyde (PFA) for 30 mins. Retinas were separated and stained with anti-CD31 immunofluorescence (IF) to evidence the vasculature. Evaluations were performed by an investigator blinded to the treatment. For CD31 IF, rat anti-mouse antibody (BD Biosciences, CAT #550274) was diluted 1:100 and incubated overnight at 4° C. After 4-hour incubation with the Alexa Fluor-488-conjugated anti-rat antibody (Life Technologies, A11006), whole mounts were imaged via the 488 nm channel using A1R Confocal STORM super-resolution system (Nikon). Quantification of vascular density in choroids and retina was carried out by Image J. Each experiment was repeated three times with similar results, and each treatment group consists of 5 individual samples.

Bip, CHOP and ATF-6 = assay: Western blot of UPR responsive proteins in BCECs; assay type: cell-based, bovine
Method: (§1) Cells were allowed to reach ˜80% confluency in 12-well plates. […] At various time points, plates were taken out of the incubator and kept on ice. Cell monolayers were first washed once with ice-cold PBS before lysis with 250 μl of Pierce RIPA buffer (ThermoFisher Scientific, Rockford, IL) or use 50 mM Tris-HCl (pH 7.6), 150 mM NaCl, 10% Glycerol, 1% NP-40 containing protease/Phosphatase inhibitor cocktail (100×) (Cell signaling, #5872). Lysates were collected and mixed with 4×Bolt LDS Sample Buffer (Novex, Carlsbad, CA) in the presence of Halt protease inhibitors and phosphatase inhibitor cocktail (ThermoFisher scientific, #NP0007). The samples were subjected to SDS-PAGE (Bolt 4-12% Bis-Tris Plus, Invitrogen) using Bolt MES SDS running buffer or NuPAGE 3-8% Tris-Acetate gel using Tris-Acetate SDS running buffer (Novex). HUVECs (passage 6-8) were plated in EBM-2 basal medium (Lonza) with 0.2% FBS. […] Equal amounts of protein lysates were analyzed by SDS-PAGE and blotted with the indicated antibodies. Proteins were transferred using Tris-Glycine buffer with 20% Methanol (Proteonomics grade) (Apex BioResearch Products). Membranes were first incubated with 5% milk in TBST, pH 7.6 (TEKnova, Hollister, CA), followed by blotting with primary and secondary antibodies. ECL anti-rabbit IgG, horseradish peroxidase linked whole antibody from donkey or sheep anti-mouse were obtained from GE Healthcare (UK limited). SuperSignal West Dura Extended Duration substrate was from ThermoFisher Scientific. In some cases, the same PVDF membranes were stripped by 8-min incubation in the Restore Plus Western Blot Stripping Buffer (ThermoFisher Scientific) to show total specific protein expression, followed by second stripping for β-actin expression.

ischemic hindlimb = assay: Hindlimb ischemia model and blood flow; assay type: in vivo, mouse; details: for blood perfusion ratio, of sham-treatment limbs: 3 weeks; for blood vessel density compared with H2O-treated control (CD31): 3 weeks post-ligation; for blood flow recovery (perfusion ratio): one week after surgery, 20% ManN oral or 1 mg/ml Kif ip every other day
Method: C57BL/6 male mice (6-8 weeks old) were subjected to unilateral hindlimb surgery under anesthesia with ketamine/xylazine cocktail. Briefly, the left femoral artery was separated from the vein and nerve, ligated proximally, and excised. The right hindlimb served as control. Blood flow was measured by using a laser Doppler perfusion imager (PeriScan PSI; Perimed). Ischemic and nonischemic limb perfusion was measured before and after surgery and 1, 2 and 3 weeks later. After surgery, mice were randomly allocated to different groups (8 mice for each group). 200 μl of 20% ManN was orally administrated every other day from 3rd day after surgery. 200 μl of 1 mg/ml Kif was administrated through ip injection every other day. H2O was used as a vehicle control. The final blood flow values were expressed as the ratio of ischemic to nonischemic hindlimb perfusion from the same animal. Quantification of blood vessel area was carried out as described.

[1] = test system: BCEC confluent monolayers; assay: BCEC scratch assay; assay type: cell-based, bovine
Method: BCECs (passage 6-10) and HUVEC (passage 6-8) were used in this assay. Cells were grown until about 80% confluency in 6-well plates, washed twice with PBS and then starved in serum-free DMEM (low Glucose, Hyclone) for 5 hrs before making a “scratch” using 1 ml tip. Cell monolayers were briefly washed once with serum-free media, followed by various treatments in media containing 1% FBS. 48 hrs later, the assay was stopped by adding 2 ml 4% paraformaldehyde. 20 min later, fixed cells were stained with 1 ml Crystal Violet (Sigma). Plates were washed gently under the running tap water and air-dried before taking pictures. Images were acquired by ZEISS Discovery […] microscopy equipped with […] camera. Quantification of wound closure was done using AxioVision LE Rel.4.4 software. Six images were taken for each sample and six measurements (in pixel) were made on each image using AxioVision LE Rel.4.4 software.

VEGFR2 = assay: Western blot of VEGFR2 molecular mass in BCECs and BRECs; assay type: cell-based, bovine
Method: Glycerol-free PNGase F was obtained from New England Biolabs (Ipswich, MA). Briefly, BCECs were lysed with NP-40 containing proteinase inhibitors (Thermo Scientific, Waltham, MA). Lysates were cleared at 4° C. at 5000 g for 25 mins. Total protein content was measured using Pierce BCA protein assay kit (ThermoScientific). […] of protein was mixed with 10× denaturing buffer and H2O to a total volume of […]. Glycoproteins were denatured at 100° C. for 10 mins, followed by adding Glycobuffer and PNGase F. The reaction was carried out at 37° C. for 2 hr.
as §1

[2] = test system: ERK, AKT, mTOR, CREB, ACC and eNOS; assay: Western blot of signal transduction pathways in BCECs; assay type: cell-based, bovine
Method: as §1

With O=C1N[C@@H]2[C@@H](O)[C@@H](O)[C@H](O)[C@@H](CO)N2C1=O [Kif, Kifunensine, reference compound] the “increase in density of retinal vessels compared to PBS group” value (retinal vasculature) was about 20%, the “Bip expression with glycosylation inhibitors” value (Bip, CHOP and ATF-6; media without growth factors for 24 hours) was “dose-dependent induction of Bip expression” and the “blood perfusion ratio, of sham-treatment limbs” value (ischemic hindlimb) was about 50%. The “blood vessel density compared with H2O-treated control (CD31)” value (ischemic hindlimb) was 1.8 times, the “blood flow recovery (perfusion ratio)” value (ischemic hindlimb) was about 47% and the “activity of glycosylation inhibitors in BCEC scratch assay” value ([1]; over 48 hours relative to control) was “significant activity”. The “VEGFR2 molecular mass after glycosylation inhibitor treatment” value (VEGFR2; 24 hours, SDS-PAGE) was “reduction in VEGFR2 molecular mass” and the “activation of ERK and AKT” value ([2]; 40 uM, BCECs) was “significantly activate”.

N[C@H](C=O)[C@@H](O)[C@H](O)[C@H](O)CO [ManN, 2-Amino-2-deoxy-D-mannose] was tested, and the “increase in density of retinal vessels compared to PBS group” value (retinal vasculature) was about 30%, the “synergy between ManN and VEGF in promoting Bip or CHOP expression” value (Bip, CHOP and ATF-6) was “No synergy” and the “time at which accumulation of Bip is evident” value (Bip, CHOP and ATF-6) was 24 h. For the same compound, the “time of CHOP induction” value (Bip, CHOP and ATF-6; dose-dependent) was “about 6 hours”, the Bip expression (Bip, CHOP and ATF-6; growing cells deprived of growth factor supply) was “significantly turn on Bip expression in a concentration-dependent manner” and the “blood perfusion ratio, of sham-treatment limbs” value (ischemic hindlimb) was about 50%. For the same compound, the “blood vessel density compared with H2O-treated control (CD31)” value (ischemic hindlimb) was 2.3 times, the “blood flow recovery (perfusion ratio)” value (ischemic hindlimb) was “about 40%” and the “closure of the scratched area compared to control” value ([1]; 40 uM ManN or 50 ng/ml of VEGF, after 48 hours) was “significantly accelerated”. For the same compound, the “additivity of ManN and VEGF in scratch assay” value ([1]; both ManN and VEGF) was “additivity was observed”, the “duration of ManN effects on protein mass in the absence of exogenous ManN” value (VEGFR2; BCECs) was “at least 8 hours” and the “concentration at which VEGFR2 molecular mass shift starts” value (VEGFR2; BCECs and BRECs) was 40 µM. For the same compound, the “effect on apparent molecular mass of VEGFR2” value (VEGFR2; BCECs and BRECs) was “shifted significantly”, the “new lower molecular weight VEGFR2 bands” value (VEGFR2; BCECs, control major band ~230 KDa, minor ~210 KDa) was 170-200 KDa and the “extent of loss of VEGFR2 glycosylation (PNGase F treatment)” value (VEGFR2; ManN at uM concentrations) was “not all the glycosylation on VEGFR2 was abolished”. The “reversibility of effects on VEGFR2 molecular mass after ManN removal” value (VEGFR2; after 24 hours) was “completely reverse”, the “activation of ERK, AKT and CREB with both ManN and VEGF compared to ManN or VEGF alone” value [2] was “enhancement in activation” and the “activation of ERK, AKT, mTOR and CREB” value ([2]; 40 uM) was “activated”. For the same compound, the “activation of eNOS and ACC” value ([2]; 40 uM) was “significantly activated”, the “time to activation of eNOS and ACC” value ([2]; 40 uM) was 10 to 30 min and the “time to stimulation of ERK, AKT and CREB after adding ManN” value ([2]; 40 uM) was 10 to 30 min.
